What was measured:
Experiment in all cases: biochemical
Design in all cases: KINOMEscan competition binding panel (Eurofins DiscoverX), single concentration, percent inhibition
Settings in all cases: read-out: 15 at 1 µM % inhibition
[1] = biological target: T1, ABL1(H396P)-nonphosphorylated (Homo sapiens, UniProt P00519, H396P)
T1 construct: nonphosphorylated
How it was run: (§1)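 KINOMEscan binding panel of >400 kinases, run by Eurofins DiscoverX, with compounds tested at a single concentration of 1 µM.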

[2] = biological target: AKT2 (Homo sapiens, UniProt P31751)
Chain of AKT2 (P31751 whole entry): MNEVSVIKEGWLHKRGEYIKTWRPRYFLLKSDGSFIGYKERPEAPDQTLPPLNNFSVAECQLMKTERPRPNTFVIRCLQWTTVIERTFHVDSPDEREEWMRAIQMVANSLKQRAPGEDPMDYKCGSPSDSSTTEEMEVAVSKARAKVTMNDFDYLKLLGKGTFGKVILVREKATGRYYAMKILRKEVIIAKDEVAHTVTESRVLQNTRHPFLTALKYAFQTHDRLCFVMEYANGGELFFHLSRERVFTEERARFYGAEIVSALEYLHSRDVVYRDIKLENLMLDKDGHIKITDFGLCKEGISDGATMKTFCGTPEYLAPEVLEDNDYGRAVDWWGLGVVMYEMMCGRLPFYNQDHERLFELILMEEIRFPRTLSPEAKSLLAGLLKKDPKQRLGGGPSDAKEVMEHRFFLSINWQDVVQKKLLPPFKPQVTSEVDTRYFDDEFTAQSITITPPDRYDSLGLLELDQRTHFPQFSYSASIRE
How it was run: as §1

[3] = biological target: T2, BIKE (Homo sapiens, UniProt Q9NSY1)
T2 construct: gene BMP2K
How it was run: as §1

[4] = biological target: CASK (Homo sapiens, UniProt O14936)
How it was run: as §1

[5] = biological target: CDK3 (Homo sapiens, UniProt Q00526)
Chain of CDK3 (Q00526 whole entry): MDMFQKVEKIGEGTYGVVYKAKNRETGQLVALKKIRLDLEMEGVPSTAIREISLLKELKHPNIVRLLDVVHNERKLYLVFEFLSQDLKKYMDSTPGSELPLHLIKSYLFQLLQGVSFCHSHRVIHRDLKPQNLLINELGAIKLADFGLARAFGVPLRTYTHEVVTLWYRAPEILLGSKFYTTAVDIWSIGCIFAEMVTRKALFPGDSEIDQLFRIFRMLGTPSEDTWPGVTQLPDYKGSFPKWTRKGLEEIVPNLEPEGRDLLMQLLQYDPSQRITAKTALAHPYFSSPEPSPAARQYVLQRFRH
How it was run: as §1

[6] = biological target: CSF1R (Homo sapiens, UniProt P07333)
How it was run: as §1

[7] = biological target: EPHB6 (Homo sapiens, UniProt O15197)
How it was run: as §1

[8] = biological target: T3, FAK (Homo sapiens, UniProt Q05397)
T3 construct: gene PTK2
How it was run: as §1

[9] = biological target: GRK2 (Homo sapiens, UniProt P25098)
Chain of GRK2 (P25098 whole entry): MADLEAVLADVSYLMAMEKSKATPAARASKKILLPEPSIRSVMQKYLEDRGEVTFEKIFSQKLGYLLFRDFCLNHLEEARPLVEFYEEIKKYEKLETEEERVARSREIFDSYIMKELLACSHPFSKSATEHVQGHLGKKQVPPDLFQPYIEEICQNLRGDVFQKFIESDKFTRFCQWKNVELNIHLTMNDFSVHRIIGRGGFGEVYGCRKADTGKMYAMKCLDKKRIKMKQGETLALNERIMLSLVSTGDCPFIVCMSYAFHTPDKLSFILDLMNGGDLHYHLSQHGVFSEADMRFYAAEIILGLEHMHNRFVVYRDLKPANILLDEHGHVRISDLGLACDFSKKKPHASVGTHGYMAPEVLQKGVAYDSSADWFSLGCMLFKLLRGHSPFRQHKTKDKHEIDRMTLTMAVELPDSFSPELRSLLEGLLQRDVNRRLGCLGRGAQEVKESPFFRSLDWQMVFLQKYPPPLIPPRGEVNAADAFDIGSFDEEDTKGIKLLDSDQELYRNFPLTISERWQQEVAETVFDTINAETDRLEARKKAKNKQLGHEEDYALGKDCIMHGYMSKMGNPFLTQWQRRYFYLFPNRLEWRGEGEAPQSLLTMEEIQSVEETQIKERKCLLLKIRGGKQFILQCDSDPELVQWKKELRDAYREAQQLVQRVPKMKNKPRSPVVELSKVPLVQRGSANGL
How it was run: as §1

[10] = biological target: T4, HPK1 (Homo sapiens, UniProt Q92918)
T4 construct: gene MAP4K1
How it was run: as §1

[11] = biological target: T5, MEK6 (Homo sapiens, UniProt P52564)
T5 construct: gene MAP2K6
How it was run: as §1

[12] = biological target: MYLK4 (Homo sapiens, UniProt Q86YV6)
How it was run: as §1

[13] = biological target: NEK2 (Homo sapiens, UniProt P51955)
How it was run: as §1

[14] = biological target: NEK5 (Homo sapiens, UniProt Q6P3R8)
How it was run: as §1

[15] = biological target: PDGFRB (Homo sapiens, UniProt P09619)
How it was run: as §1

[16] = biological target: PIK3CD (Homo sapiens, UniProt O00329)
Chain of PIK3CD (O00329 whole entry): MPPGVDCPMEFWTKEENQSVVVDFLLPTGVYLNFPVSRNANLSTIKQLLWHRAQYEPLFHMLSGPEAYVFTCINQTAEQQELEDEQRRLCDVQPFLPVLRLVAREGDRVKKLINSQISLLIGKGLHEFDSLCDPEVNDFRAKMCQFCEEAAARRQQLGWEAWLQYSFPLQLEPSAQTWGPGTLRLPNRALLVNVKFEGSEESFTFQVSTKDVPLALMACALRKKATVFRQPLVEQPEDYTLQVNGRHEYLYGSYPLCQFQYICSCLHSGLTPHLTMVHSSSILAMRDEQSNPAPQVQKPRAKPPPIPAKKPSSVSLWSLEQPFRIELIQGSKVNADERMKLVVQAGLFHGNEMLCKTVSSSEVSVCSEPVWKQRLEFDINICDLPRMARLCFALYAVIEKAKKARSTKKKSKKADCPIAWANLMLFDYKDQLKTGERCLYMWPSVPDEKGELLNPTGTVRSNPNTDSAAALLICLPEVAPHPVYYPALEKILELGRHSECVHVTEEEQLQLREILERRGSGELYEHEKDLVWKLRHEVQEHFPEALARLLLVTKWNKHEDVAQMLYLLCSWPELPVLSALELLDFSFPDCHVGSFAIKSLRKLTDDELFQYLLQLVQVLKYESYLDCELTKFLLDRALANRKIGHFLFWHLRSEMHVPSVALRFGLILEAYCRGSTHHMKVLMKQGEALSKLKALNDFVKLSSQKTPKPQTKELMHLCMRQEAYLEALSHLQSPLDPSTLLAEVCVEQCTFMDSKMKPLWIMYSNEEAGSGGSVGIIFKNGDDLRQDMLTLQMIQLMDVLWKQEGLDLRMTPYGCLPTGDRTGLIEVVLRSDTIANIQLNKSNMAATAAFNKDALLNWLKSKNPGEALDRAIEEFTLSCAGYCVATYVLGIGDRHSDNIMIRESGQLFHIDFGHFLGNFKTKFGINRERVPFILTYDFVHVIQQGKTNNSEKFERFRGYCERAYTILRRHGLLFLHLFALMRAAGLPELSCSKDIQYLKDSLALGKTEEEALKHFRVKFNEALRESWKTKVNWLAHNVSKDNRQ
How it was run: as §1

[17] = biological target: PIK3CG (Homo sapiens, UniProt P48736)
Chain of PIK3CG (P48736 whole entry): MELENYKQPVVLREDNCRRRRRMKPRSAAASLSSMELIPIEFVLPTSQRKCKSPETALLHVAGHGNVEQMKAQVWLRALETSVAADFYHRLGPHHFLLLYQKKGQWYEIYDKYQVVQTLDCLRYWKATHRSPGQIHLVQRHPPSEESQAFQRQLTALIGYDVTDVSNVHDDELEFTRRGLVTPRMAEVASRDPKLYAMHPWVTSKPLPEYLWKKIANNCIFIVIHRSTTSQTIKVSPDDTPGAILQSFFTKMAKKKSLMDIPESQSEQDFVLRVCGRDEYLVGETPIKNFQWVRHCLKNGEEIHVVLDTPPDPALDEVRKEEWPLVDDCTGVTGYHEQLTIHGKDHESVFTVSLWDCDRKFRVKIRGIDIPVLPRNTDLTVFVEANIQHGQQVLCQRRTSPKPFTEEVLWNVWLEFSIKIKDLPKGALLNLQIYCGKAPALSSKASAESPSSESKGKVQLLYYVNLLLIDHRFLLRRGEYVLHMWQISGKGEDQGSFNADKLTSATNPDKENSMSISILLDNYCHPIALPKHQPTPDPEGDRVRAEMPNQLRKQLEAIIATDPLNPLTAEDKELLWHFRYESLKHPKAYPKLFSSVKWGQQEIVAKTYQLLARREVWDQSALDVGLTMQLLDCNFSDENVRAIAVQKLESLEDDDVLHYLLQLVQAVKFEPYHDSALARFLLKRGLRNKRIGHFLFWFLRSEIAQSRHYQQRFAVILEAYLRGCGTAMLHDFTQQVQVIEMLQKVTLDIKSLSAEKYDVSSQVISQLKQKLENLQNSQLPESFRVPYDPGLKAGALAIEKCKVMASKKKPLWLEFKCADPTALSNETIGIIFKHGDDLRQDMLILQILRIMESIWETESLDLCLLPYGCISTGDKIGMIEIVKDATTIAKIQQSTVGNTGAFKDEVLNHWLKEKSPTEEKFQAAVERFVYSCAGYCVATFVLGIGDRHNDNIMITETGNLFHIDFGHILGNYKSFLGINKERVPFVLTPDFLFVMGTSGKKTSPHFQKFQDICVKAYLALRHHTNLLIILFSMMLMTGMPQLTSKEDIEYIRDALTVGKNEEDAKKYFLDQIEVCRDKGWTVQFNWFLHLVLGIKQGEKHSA
How it was run: as §1

[18] = biological target: PIM2 (Homo sapiens, UniProt Q9P1W9)
How it was run: as §1

[19] = biological target: PIP5K1C (Homo sapiens, UniProt O60331)
How it was run: as §1

[20] = biological target: RIOK1 (Homo sapiens, UniProt Q9BRS2)
How it was run: as §1

[21] = biological target: STK35 (Homo sapiens, UniProt Q8TDR2)
How it was run: as §1

[22] = biological target: T6, SgK110 (Homo sapiens, UniProt P0C264)
T6 construct: gene SBK3
T6 sequence (P0C264 whole entry): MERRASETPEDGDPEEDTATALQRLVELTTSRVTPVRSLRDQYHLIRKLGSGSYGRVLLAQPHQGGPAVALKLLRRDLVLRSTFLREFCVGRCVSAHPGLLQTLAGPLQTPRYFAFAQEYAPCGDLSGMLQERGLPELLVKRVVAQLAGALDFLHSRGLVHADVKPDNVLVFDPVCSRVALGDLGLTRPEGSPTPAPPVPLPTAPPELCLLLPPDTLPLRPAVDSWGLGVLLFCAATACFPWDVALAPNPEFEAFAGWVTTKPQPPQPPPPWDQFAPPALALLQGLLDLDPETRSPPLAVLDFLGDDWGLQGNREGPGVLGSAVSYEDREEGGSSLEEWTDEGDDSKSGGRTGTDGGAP
How it was run: as §1

[23] = biological target: T7, TRKA (Homo sapiens, UniProt P04629)
T7 construct: gene NTRK1
T7 sequence (P04629 whole entry): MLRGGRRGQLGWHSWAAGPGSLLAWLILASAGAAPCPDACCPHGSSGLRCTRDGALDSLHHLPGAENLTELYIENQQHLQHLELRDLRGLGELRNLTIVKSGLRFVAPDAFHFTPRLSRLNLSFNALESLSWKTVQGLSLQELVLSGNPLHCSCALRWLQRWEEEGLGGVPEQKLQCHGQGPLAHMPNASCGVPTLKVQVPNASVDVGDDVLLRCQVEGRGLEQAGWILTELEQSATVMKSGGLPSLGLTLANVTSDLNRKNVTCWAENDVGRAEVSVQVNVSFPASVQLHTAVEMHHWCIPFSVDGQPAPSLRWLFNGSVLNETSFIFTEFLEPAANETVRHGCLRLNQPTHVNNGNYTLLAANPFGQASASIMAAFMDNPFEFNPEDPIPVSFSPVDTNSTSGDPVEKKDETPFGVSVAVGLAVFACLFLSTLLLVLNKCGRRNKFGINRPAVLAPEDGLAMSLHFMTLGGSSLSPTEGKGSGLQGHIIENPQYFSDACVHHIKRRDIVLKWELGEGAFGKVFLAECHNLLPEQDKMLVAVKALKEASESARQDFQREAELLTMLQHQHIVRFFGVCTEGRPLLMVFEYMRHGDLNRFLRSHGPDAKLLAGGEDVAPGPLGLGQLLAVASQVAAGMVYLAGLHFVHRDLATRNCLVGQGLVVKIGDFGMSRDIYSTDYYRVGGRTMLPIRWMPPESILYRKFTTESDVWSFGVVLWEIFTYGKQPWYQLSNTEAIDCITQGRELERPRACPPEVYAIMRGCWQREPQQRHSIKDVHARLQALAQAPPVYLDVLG
How it was run: as §1

[24] = biological target: TRPM6 (Homo sapiens, UniProt Q9BX84)
How it was run: as §1

[25] = biological target: WEE1 (Homo sapiens, UniProt P30291)
How it was run: as §1

inhibition at 1 µM [1]: 31%
inhibition at 1 µM [2]: 0%
inhibition at 1 µM [3]: 0%
inhibition at 1 µM [4]: 26%
inhibition at 1 µM [5]: 56%
inhibition at 1 µM [6]: 0%
inhibition at 1 µM [7]: 0%
inhibition at 1 µM [8]: 0%
inhibition at 1 µM [9]: 10%
inhibition at 1 µM [10]: 0%
inhibition at 1 µM [11]: 0%
inhibition at 1 µM [12]: 0%
inhibition at 1 µM [13]: 1%
inhibition at 1 µM [14]: 0%
inhibition at 1 µM [15]: 10%
inhibition at 1 µM [16]: 37%
inhibition at 1 µM [17]: 0%
inhibition at 1 µM [18]: 0%
inhibition at 1 µM [19]: 18%
inhibition at 1 µM [20]: 0%
inhibition at 1 µM [21]: 0%
inhibition at 1 µM [22]: 0%
inhibition at 1 µM [23]: 37%
inhibition at 1 µM [24]: 6%
inhibition at 1 µM [25]: 7%
SMILES: CNS(=O)(=O)c1ccc(N(C)C)c(Nc2nc(C)nc3cc(OC)c(OC)cc23)c1 [compound 15, 3-((6,7-dimethoxy-2-methylquinazolin-4-yl)amino)-4-(dimethylamino)-N-methylbenzenesulfonamide]

From paper PMC7180948, “New Insights into 4-Anilinoquinazolines as Inhibitors of Cardiac Troponin I–Interacting Kinase (TNNi3K)” (Molecules, 2020)
